Data reported in patent US11168073B2, “3,3-difluoroallylamines or salts thereof and pharmaceutical compositions comprising the same” (YUHAN CORPORATION, priority 2018, dated 2021).
Where a name gives a salt, the structure may show the parent alone. Read-outs that look alike come from different tables or passages of the source.

Experiments:
Type in all cases: biochemical
[1] = molecular target: T1, recombinant human MAO-B (monoamine oxidase-B) (Homo sapiens, UniProt P27338); experiment: Activity evaluation on recombinant human MAO-B (Amplex Red/HRP-coupled assay, 1 mM benzylamine substrate); details: read-out: Inhibitory Activity (IC50, nM) MAO-B
T1 construct: purchased Sigma-Aldrich
T1 sequence (P27338 1-520): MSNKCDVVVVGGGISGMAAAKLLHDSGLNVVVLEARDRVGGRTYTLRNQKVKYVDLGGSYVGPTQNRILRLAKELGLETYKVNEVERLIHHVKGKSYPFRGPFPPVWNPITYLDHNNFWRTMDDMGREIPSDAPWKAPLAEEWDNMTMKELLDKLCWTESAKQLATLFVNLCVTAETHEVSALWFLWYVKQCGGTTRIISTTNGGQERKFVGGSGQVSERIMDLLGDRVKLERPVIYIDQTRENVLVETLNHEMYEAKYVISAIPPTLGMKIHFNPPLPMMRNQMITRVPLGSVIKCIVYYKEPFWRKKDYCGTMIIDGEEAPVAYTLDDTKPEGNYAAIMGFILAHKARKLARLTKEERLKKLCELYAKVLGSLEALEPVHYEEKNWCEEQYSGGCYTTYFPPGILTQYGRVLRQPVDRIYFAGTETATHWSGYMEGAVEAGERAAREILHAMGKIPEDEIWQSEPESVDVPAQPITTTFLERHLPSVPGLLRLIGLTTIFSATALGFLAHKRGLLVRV
Method in brief: (§1)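 Using an HRP-coupled Amplex Red readout (544/590 nm, kinetic over 1–2 h), IC50 values were fitted by 4-parameter logistic model to percent decrease in signal rate against DMSO control. Compounds (1:3 dilutions, 8 points, <1% DMSO) sat 30 min at 37 °C with enzyme in pH 7.4 phosphate buffer before substrate, 200 uM Amplex Red and HRP were added.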

[2] = molecular target: T2, recombinant human VAP-1 (Homo sapiens, UniProt Q16853); experiment: Activity evaluation on recombinant human VAP-1 (Amplex Red/HRP-coupled hydrogen peroxide assay, benzylamine substrate); details: read-out: Inhibitory Activity (IC50, nM) human VAP-1
T2 construct: purchased R&D systems
T2 sequence (Q16853 1-763): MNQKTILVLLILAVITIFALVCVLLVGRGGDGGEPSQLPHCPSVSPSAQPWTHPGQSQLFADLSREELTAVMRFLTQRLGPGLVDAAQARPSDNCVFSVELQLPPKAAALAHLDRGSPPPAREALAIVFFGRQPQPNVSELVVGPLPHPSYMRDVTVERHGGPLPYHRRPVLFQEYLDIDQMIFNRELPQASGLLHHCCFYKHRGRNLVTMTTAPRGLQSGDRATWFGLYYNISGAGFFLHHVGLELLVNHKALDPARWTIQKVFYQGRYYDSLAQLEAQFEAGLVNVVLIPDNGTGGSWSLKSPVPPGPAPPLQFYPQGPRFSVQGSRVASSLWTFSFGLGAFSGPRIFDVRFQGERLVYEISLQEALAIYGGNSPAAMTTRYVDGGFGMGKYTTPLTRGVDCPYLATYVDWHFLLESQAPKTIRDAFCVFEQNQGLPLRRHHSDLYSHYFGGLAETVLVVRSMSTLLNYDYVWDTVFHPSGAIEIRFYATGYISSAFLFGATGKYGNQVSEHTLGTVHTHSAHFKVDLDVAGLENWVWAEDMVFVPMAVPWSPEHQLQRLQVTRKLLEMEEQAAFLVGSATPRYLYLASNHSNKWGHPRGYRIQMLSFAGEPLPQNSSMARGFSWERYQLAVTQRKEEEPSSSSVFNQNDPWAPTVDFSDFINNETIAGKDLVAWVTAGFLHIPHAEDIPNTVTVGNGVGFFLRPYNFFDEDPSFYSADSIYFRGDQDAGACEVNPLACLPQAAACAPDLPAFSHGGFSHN
Method in brief: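 Hydrogen peroxide from benzylamine (1 mM) oxidation by human recombinant VAP-1 detected via HRP-coupled Amplex Red (200 uM) fluorescence, kinetic over 1–2 h. Enzyme and compound preincubated 30 min at 37 °C, pH 7.4 phosphate; 8-point dose response, signal-rate decrease versus DMSO control fitted to four-parameter logistic for IC50.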

[3] = molecular target: T3, recombinant human DAO (diamine oxidase) (Homo sapiens, UniProt P19801); experiment: Activity evaluation on recombinant human DAO (Amplex Red/HRP-coupled assay, 1 mM putrescine substrate); details: read-out: Inhibitory Activity (IC50, nM) DAO
T3 construct: purchased R&D systems
T3 sequence (P19801 20-751): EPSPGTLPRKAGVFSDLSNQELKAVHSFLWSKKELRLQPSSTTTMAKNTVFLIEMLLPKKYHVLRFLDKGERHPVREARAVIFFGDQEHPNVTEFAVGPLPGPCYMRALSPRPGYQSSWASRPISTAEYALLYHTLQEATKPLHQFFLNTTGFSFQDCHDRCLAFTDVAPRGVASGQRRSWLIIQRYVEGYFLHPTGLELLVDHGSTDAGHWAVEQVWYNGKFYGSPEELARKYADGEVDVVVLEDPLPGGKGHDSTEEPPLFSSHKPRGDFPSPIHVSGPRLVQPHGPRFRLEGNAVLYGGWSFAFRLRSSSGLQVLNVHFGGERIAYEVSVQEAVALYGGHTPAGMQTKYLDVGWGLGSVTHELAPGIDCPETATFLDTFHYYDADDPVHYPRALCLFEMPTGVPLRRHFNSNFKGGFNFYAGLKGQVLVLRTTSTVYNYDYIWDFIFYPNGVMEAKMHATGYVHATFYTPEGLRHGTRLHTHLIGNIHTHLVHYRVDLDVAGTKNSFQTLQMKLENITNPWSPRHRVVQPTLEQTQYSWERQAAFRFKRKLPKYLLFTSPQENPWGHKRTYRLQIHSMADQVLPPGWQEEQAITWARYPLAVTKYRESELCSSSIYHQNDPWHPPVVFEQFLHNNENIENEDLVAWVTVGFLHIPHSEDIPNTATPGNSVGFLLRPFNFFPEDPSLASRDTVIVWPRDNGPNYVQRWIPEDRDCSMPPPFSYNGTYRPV
Method in brief: as §1

[4] = molecular target: T4, recombinant human MAO-A (monoamine oxidase-A) (Homo sapiens, UniProt P21397); experiment: Activity evaluation on recombinant human MAO-A (Amplex Red/HRP-coupled assay, 0.5 mM tyramine substrate); details: read-out: Inhibitory Activity (IC50, nM) MAO-A
T4 construct: purchased Sigma-Aldrich
T4 sequence (P21397 1-527): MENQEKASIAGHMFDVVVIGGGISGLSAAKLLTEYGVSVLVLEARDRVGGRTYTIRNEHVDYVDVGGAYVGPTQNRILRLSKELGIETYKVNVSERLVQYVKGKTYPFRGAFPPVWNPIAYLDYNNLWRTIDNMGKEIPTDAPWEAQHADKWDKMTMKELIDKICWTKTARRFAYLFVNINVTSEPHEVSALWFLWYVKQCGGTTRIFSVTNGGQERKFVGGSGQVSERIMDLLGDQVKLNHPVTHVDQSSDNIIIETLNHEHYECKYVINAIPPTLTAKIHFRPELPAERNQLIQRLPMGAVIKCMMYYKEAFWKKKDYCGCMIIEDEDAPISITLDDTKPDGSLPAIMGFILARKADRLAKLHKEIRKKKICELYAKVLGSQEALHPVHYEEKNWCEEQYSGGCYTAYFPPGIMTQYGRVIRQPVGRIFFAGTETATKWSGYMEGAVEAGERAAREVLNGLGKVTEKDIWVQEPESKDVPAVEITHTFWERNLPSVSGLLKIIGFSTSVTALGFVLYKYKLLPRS
Method in brief: as §1

[5] = recombinant human VAP-1, 30 min preincubation at 37° C., 1 mM benzylamine
[6] = recombinant human VAP-1, benzylamine substrate

| Structure (SMILES) | IC50 ([1]; 1 mM benzylamine) [nM] | IC50 [2, 5] [nM] | IC50 ([3]; 1 mM putrescine) [nM] | IC50 ([4]; 0.5 mM tyramine) [nM] | IC50 ([1]; 1 mM benzylamine substrate) [nM] | IC50 [2, 6] [nM] | IC50 ([3]; 1 mM putrescine substrate) [nM] | IC50 ([4]; 0.5 mM tyramine substrate) [nM] |
| --- | --- | --- | --- | --- | --- | --- | --- | --- |
| NCC(Cn1ncn(-c2cccc(-c3ccc(C(F)(F)F)nc3)c2)c1=O)=C(F)F [Example 19, 2-[2-(aminomethyl)-3,3-difluoro-allyl]-4-[3-[6-(trifluoromethyl)-3-pyridyl]phenyl]-1,2,4-triazol-3-one Trifluoroacetate] | > 10000 | 5.3 | 240 | > 100000 | – | – | – | – |
| Cc1cc(Br)cnc1-n1cnn(CC(CN)=C(F)F)c1=O [Example 11, 2-[2-(aminomethyl)-3,3-difluoro-allyl]-4-(5-bromo-3-methyl-2-pyridyl)-1,2,4-triazol-3-one Trifluoroacetate] | 57000 | 1.1 | > 100000 | > 100000 | – | – | – | – |
| NCC(Cn1ncn(Cc2ccc(-c3cc(F)c4c(c3)CC(=O)N4)s2)c1=O)=C(F)F [Example 130, 5-[5-[[1-[2-(aminomethyl)-3,3-difluoro-allyl]-5-oxo-1,2,4-triazol-4-yl]methyl]-2-thienyl]-7-fluoro-indolin-2-one Trifluoroacetate] | > 100000 | 0.7 | > 100000 | > 100000 | – | – | – | – |
| Cc1cc(-c2cccc(N3CCNCC3)c2)cnc1-n1cnn(CC(CN)=C(F)F)c1=O [Example 235, 2-[2-(aminomethyl)-3,3-difluoro-allyl]-4-[3-methyl-5-(3-piperazin-1-ylphenyl)-2-pyridyl]-1,2,4-triazol-3-one Ditrifluoroacetate] | – | – | – | – | 840 | 1.4 | > 100000 | > 100000 |
| NCC(Cn1ncn(CCc2cccs2)c1=O)=C(F)F [Example 172, 2-[2-(aminomethyl)-3,3-difluoro-allyl]-4-[2-(2-thienyl)ethyl]-1,2,4-triazol-3-one Trifluoroacetate] | 61000 | 13 | > 100000 | > 100000 | – | – | – | – |
| Cn1c(-c2ccc(Cn3cnn(CC(CN)=C(F)F)c3=O)s2)cnc1Cl [Example 120, 2-[2-(aminomethyl)-3,3-difluoro-allyl]-4-[[5-(2-chloro-3-methyl-imidazol-4-yl)-2-thienyl]methyl]-1,2,4-triazol-3-one Trifluoroacetate] | > 100000 | 6 | > 100000 | > 100000 | – | – | – | – |
| NCC(Cn1ncn(Cc2cc3ccc(-c4ccc(N5CCNCC5)cc4)cc3s2)c1=O)=C(F)F [Example 198, 2-[2-(aminomethyl)-3,3-difluoro-allyl]-4-[[6-(4-piperazin-1-ylphenyl)benzothiophen-2-yl]methyl]-1,2,4-triazol-3-one Ditrifluoroacetate] | – | – | – | – | 23000 | 4.6 | 880 | > 100000 |
| Cc1cc(-c2ccc(N(C)C)nc2)sc1Cn1cnn(CC(CN)=C(F)F)c1=O [Example 157, 2-[2-(aminomethyl)-3,3-difluoro-allyl]-4-[[5-[6-(dimethylamino)-3-pyridyl]-3-methyl-2-thienyl]methyl]-1,2,4-triazol-3-one Trifluoroacetate] | > 100000 | 2.3 | > 100000 | > 100000 | – | – | – | – |

More lines, now with the values ahead:

| IC50 ([1]; 1 mM benzylamine) [nM] | IC50 [2, 5] [nM] | IC50 ([3]; 1 mM putrescine) [nM] | IC50 ([4]; 0.5 mM tyramine) [nM] | IC50 ([1]; 1 mM benzylamine substrate) [nM] | IC50 [2, 6] [nM] | IC50 ([3]; 1 mM putrescine substrate) [nM] | IC50 ([4]; 0.5 mM tyramine substrate) [nM] | Structure (SMILES) |
| --- | --- | --- | --- | --- | --- | --- | --- | --- |
| 14000 | 0.7 | 19 | > 100000 | – | – | – | – | CS(=O)(=O)c1ccc(-c2cc(-n3cnn(CC(CN)=C(F)F)c3=O)ccn2)cc1 [Example 61, 2-[2-(aminomethyl)-3,3-difluoro-allyl]-4-[2-(4-methylsulfonylphenyl)-4-pyridyl]-1,2,4-triazol-3-one Trifluoroacetate] |
| 16000 | 0.7 | 110 | > 100000 | – | – | – | – | CN(C)c1ccc(-c2cc(-n3cnn(CC(CN)=C(F)F)c3=O)ccn2)cn1 [Example 63, 2-[2-(aminomethyl)-3,3-difluoro-allyl]-4-[2-[6-(dimethylamino)-3-pyridyl]-4-pyridyl]-1,2,4-triazol-3-one Trifluoroacetate] |
| 50 | 0.3 | 21 | > 100000 | – | – | – | – | NCC(Cn1ncn(-c2cnc(-c3ccc4c(c3)OCO4)cn2)c1=O)=C(F)F [Example 93, 2-[2-(aminomethyl)-3,3-difluoro-allyl]-4-[5-(1,3-benzodioxol-5-yl)pyrazin-2-yl]-1,2,4-triazol-3-one Trifluoroacetate] |
| 6200 | 0.2 | 8 | > 100000 | – | – | – | – | CN(C)c1ccc(-c2cnc(-n3cnn(CC(CN)=C(F)F)c3=O)cn2)cn1 [Example 92, 2-[2-(aminomethyl)-3,3-difluoro-allyl]-4-[5-[6-(dimethylamino)-3-pyridyl]pyrazin-2-yl]-1,2,4-triazol-3-one Trifluoroacetate] |
| 640 | 0.1 | 33 | > 100000 | – | – | – | – | Cc1cc(-c2cnc(-n3cnn(CC(CN)=C(F)F)c3=O)c(F)c2)cc2c1NC(=O)CC2 [Example 86, 6-[6-[1-[2-(aminomethyl)-3,3-difluoro-allyl]-5-oxo-1,2,4-triazol-4-yl]-5-fluoro-3-pyridyl]-8-methyl-3,4-dihydro-1H-quinolin-2-one Trifluoroacetate] |
